Consider 68 compounds from ChEMBL document CHEMBL3507680, “University of Dundee, Gates Library screen for HepG2 cell viability”.

This series can be described thus: Human HepG2 cell viability assay in 384 well format. In kind it is toxicity, cell-based. Details: dose 125 nL, time 70.5 hour; concentration not given beside the values. The settings on record: HepG2 cells, read-out: Inhibition.

As to `c1cnc(N2CCOCC3(CCN(c4cnccn4)CC3)C2)nc1`, the cytotoxicity at 70.5 h is -8.75%. Regarding `COc1cc(F)ccc1CC(=O)N1CC[C@H]2C(=O)NCCO[C@H]2C1`, the cytotoxicity at 70.5 h amounted to 0.421%. On to `O=C(CC(F)(F)F)N1CCC2(CCCN(c3nncs3)C2)C1` (stereo not drawn), for which the cytotoxicity at 70.5 h was -3.95%. The result for `CN1Cc2ccccc2CC2(CCN(C(=O)[C@H]3CCCO3)CC2)C1=O` reads -4.74%.

As for `COc1cc(N2CCC3(C2)CN(c2cccnc2)C(=O)CN3C)ncn1` (stereo not drawn), the cytotoxicity at 70.5 h is -4.78%.

As to `CSc1cccc(NC(=O)N2CCC3(CCC(=O)N(C4CC4)C3)CC2)c1`, the cytotoxicity at 70.5 h was -9.9%. The result for `Cc1ccccc1C1(O)CCN(C(=O)CCc2cn3ccccc3n2)C1` (stereo not drawn) reads 17.9%; that for `c1cc(-c2cc(C3CCN(Cc4cncnc4)C3)ccn2)ccn1` (stereo not drawn), 0.319%. With `COc1cc(OC)cc(-n2ccnc2-c2cc3n(n2)CCNC3)c1`, the cytotoxicity at 70.5 h amounted to 19.3%.

As to `CCN(CC)C(=O)Cn1cc(C(=O)NCCc2scnc2C)nn1`, the cytotoxicity at 70.5 h is -1.44%. The result for `CSc1ccccc1CN1CCn2nc(CNC(=O)N(C)C)cc2C1` reads -8.7%; that for `O=C1O[C@@H]2CN(c3ccccn3)C[C@@H]2N1CCCc1ccc(F)cc1`, -14.3%; that for `CCc1ccc(CN(C)c2ccc(-c3nc(COC)no3)cn2)nc1`, -4.59%.

Consider `CCCn1ncnc1C(C)NC(=O)C1CCN(C(=O)C2CC2)CC1` (stereo not drawn), for which the cytotoxicity at 70.5 h was -3.95%. The result for `COc1ccnc(N2C[C@@H]3CC[C@H](C2)N(CC2CCC2)C3=O)n1` reads -0.827%; that for `COCCc1nc(CSc2ccncc2)n(C)n1`, 1.99%; that for `CC(C)n1cc(-c2nc3cc(S(=O)(=O)N4CCCC4)ccc3n2C)cn1`, -25.1%. As for `Cc1nc2c(c(N(C)C)n1)CCN(C(=O)c1ccc(N)nc1)C2`, the cytotoxicity at 70.5 h was -7.14%. Regarding `CCN(CCOC)C(=O)c1ccc2c(c1)nc(N1CC[C@H](O)C1)n2C`, the cytotoxicity at 70.5 h is -8.67%. Consider `CCc1ncc2c(n1)CN(c1nccc(C3CCCC3)n1)C2`, for which the cytotoxicity at 70.5 h is -10.9%. The same measure for `Cc1n[nH]c(C)c1Sc1ccccc1NC(=O)N1CCN(C)CC1`: 50.2%. Turning to `CSCCC(=O)N1CCc2c(ncnc2N2CCOCC2)C1`, the cytotoxicity at 70.5 h is -2.83%. The same measure for `Cn1c(CN2CCN(c3cccnc3)CC2)cc2ccccc21`: -4.28%. The same measure for `Cc1nc(N(C)C)ncc1C(=O)NCCc1csc(-c2cnccn2)n1`: -6.1%; for `CSCCCN1C(=O)CC[C@H]2CN(Cc3ncc[nH]3)CC[C@H]21`: -5.45%; for `COc1cccc(C(C(=O)O)N2CCC(Cn3cccn3)CC2)c1OC` (stereo not drawn): -9.71%. The same measure for `Cc1cnc(N2CCC(c3ccncc3)CC2)nc1-c1ccnn1C`: -12.9%; for `COc1ccccc1OC1CCN(c2ccncc2)CC1`: 12.9%. For the compound `O=C(Cc1ccc(O)c(F)c1)N1CCC2(CCNCC2)CC1`, the cytotoxicity at 70.5 h was -1.13%. The result for `CCn1cc(CN2CCCC(COc3ccc(F)cc3)C2)cn1` (stereo not drawn) reads 12.1%.

Regarding `CCC(NC1CCN(C(=O)c2ccccc2)CC1)c1cccs1` (stereo not drawn), the cytotoxicity at 70.5 h was -16.9%. The result for `CN1CCC(n2nc(Cc3cccs3)nc2-c2ccncc2)CC1` reads 2.89%; that for `Cc1cc(C(=O)N2CCC3(CC2)c2nc[nH]c2CCN3CC(C)C)no1`, 7%; that for `CN(C)C1CCCN(C(=O)c2cccc(-c3ncc[nH]3)c2)CC1` (stereo not drawn), -1.63%. The result for `CNC(=O)C1CCCN(c2nc(-c3ccco3)nc3c2CCNCC3)C1` (stereo not drawn) reads -4.06%. Regarding `O=C(c1ccc2nccnc2c1)N1C[C@@H](CN2CCCC2)[C@@H](CO)C1`, the cytotoxicity at 70.5 h was -5.28%. In the case of `CN1CCN(c2ncccn2)CC12CCC(=O)N(CC1CC1)CC2` (stereo not drawn), the cytotoxicity at 70.5 h worked out at 9.35%.

As to `CN(Cc1ccoc1)C(=O)C1(Oc2ccc(Cl)cc2)CCNCC1`, the cytotoxicity at 70.5 h is -6.31%. For the compound `CCC(=O)N1CCN(C(=O)c2cn3ccsc3n2)[C@H]2CS(=O)(=O)C[C@H]21`, the cytotoxicity at 70.5 h was -13.8%. The result for `CN1CC2(CCCN(C(=O)Cc3cccc(O)c3)C2)OC1=O` (stereo not drawn) reads -6.74%.

Turning to `CC(C)N(C)C(=O)C1CCC(=O)N(CCc2cccc(F)c2)C1` (stereo not drawn), the cytotoxicity at 70.5 h was -3.96%.

With `Cc1[nH]c(-c2ccccc2)nc1C(=O)N1CCC(O)(CO)CC1`, the cytotoxicity at 70.5 h is 17.9%. For the compound `CCC1CC(=O)NCc2nc3sc(C)cn3c21` (stereo not drawn), the cytotoxicity at 70.5 h was -4.35%.

For the compound `CC(C)N(C)C(=O)c1coc(CN2CCN(c3ccccc3F)CC2)n1`, the cytotoxicity at 70.5 h is -3.77%.

Take `CC(C)Nc1ccnc(-c2ccnc3c2ccn3C)n1`: the cytotoxicity at 70.5 h was -9.28%.

With `COCCN1CC(C(=O)N(C)Cc2cc(-c3cccnc3)no2)CC1=O` (stereo not drawn), the cytotoxicity at 70.5 h is -11.9%. In the case of `CCN(CC)C1CCN(c2ncnc3c2CCN(C(=O)C2CC2)C3)C1` (stereo not drawn), the cytotoxicity at 70.5 h is -2.79%. The same measure for `Cc1occc1C(=O)Nc1ccc(C(=O)NC[C@H]2CCCN2)cc1`: 7%. Turning to `CCn1nc(CC(C)C)cc1C(=O)NCCCN1CCOCC1`, the cytotoxicity at 70.5 h was -0.263%. The same measure for `Cc1n[nH]c(SCC(=O)N[C@@H](C)C(N)=O)n1`: 0.227%; for `O=C(c1ccc(-c2nc[nH]n2)cc1)N1CC[C@H](CO)[C@@H](O)C1`: -10.8%; for `Cc1ccc(C(C(=O)NCCN2CCCCCC2)N(C)C)cc1` (stereo not drawn): 5.23%. On to `Cc1cccc(C2CCCN(C(=O)CN3CCCC3=O)C2)c1` (stereo not drawn), for which the cytotoxicity at 70.5 h is -21.9%. With `Cc1cc(C)n(CCN(C)Cc2c[nH]nc2-c2ccc3c(c2)OCO3)n1`, the cytotoxicity at 70.5 h is -5.98%. In the case of `CC(C)OC(=O)N1C[C@H]2CC[C@@H]1CN(Cc1cccnc1)C2`, the cytotoxicity at 70.5 h is -3.17%. On to `CN1CCN(Cc2noc(CCc3nc(-c4ccccc4)no3)n2)CC1`, for which the cytotoxicity at 70.5 h is -6.63%. With `O=C(Nc1nc(-c2ccccc2)ns1)N1CCC(F)CC1`, the cytotoxicity at 70.5 h was -3.26%. The result for `NCc1n[nH]c(=O)n1-c1ccccc1Oc1ccccc1` reads 9.56%. The same measure for `CC(C)(C)c1ncc2c(n1)CN(C(=O)c1ccc(C#N)nc1)C2`: 11.4%; for `O=C(CCc1n[nH]c2c1CCCC2)N1C[C@@H]2CC[C@H](C1)N(CC1CC1)C2`: -7.45%. The same measure for `Cc1cc2ccccc2n1CCC(=O)NCCN(C)S(C)(=O)=O`: -13.9%. Consider `CN(C)C(C(=O)N1CCN(CCn2cccc2)CC1)c1cccc(F)c1` (stereo not drawn), for which the cytotoxicity at 70.5 h turned out to be 2.13%. On to `O=C(O)[C@@H]1CN(C(=O)CSCCN2CCCC2)C[C@H]1c1ccccc1`, for which the cytotoxicity at 70.5 h worked out at 1.16%. The same measure for `COCC(=O)N1CCCN(Cc2cc(O)c3ccccc3n2)CC1`: -9.45%; for `Cc1cnc(N2C[C@H]3CCCC(N(C)Cc4ccccn4)[C@H]3C2)nc1` (stereo partly drawn): -9.85%. Take `Cc1ccc(CN2CCCC3(CCCCN3S(C)(=O)=O)C2)s1` (stereo not drawn): the cytotoxicity at 70.5 h was determined as 19.2%. The result for `Cc1cccc(CN2CCOC3(CCCN(CC(=O)N(C)C)C3)C2)n1` (stereo not drawn) reads -5.53%. The same measure for `CN1CCN(Cc2cccnc2)C(=O)C12CCN(C1CCOC1)CC2` (stereo not drawn): -5.29%.
